In patent publication US20230009608A1, “GRK2 INHIBITORS AND USES THEREOF” (Cygnal Therapeutics, Inc., priority 2020, published 2023):

System: PAXF1657 control empty vector cell line
Experiment: 7-day proliferation assay, PAXF1657 control empty vector cell line (Example 9)
Assay type: cell-based
Settings: 168 h; Cell Line: PAXF1657 empty vector (EV) cell line; 7-day; read-out: C: 7-day proliferation assay: IC50 GeoMean
Experimental: In order to identify compounds specific for GRK2, we generated two isogenic cell line pairs of the pancreatic cancer cell line PAXF1657, a pair of cells stably overexpressing GRK2 cDNA or the control empty vector and a cell line pair of PAXF1657 GRK2 knockout clonal cells versus non-targeting control clonal cells.
Proliferation Assay: Cellular anti-proliferative activity of compounds was assessed by using the pancreatic cancer cell line, PAXF1657, stably overexpressing GRK2 cDNA or the control empty vector, as well as the parental urinary bladder cancer cell line, 5637. In addition, we also took advantage of GRK2 knockout cell lines that were generated via CRISPR. Cell lines were seeded into tissue culture treated, white-walled, 96-well plates at a density of 500 cells/well in RPMI1640 media supplemented with 10% H.I. FBS and penicillin/streptomycin. Plates were incubated overnight at 37° C., 5% CO2 to allow cells to adhere to the wells. GRK2 inhibitors were added to the cells using a 10-point dilution series with a final concentration ranging from 30 μM-0.0002 μM in 0.3% DMSO. At the time of compound addition, a set of plates, that were not treated with compounds, were collected and cell viability was measured using CellTiter-Glo (Promega). CellTiter-Glo reagent was added to the designed plates and luminescence was measuring using a Biotek Synergy plate reader. The compound treated cells were incubated for 3 days at 37° C., 5% CO2. The media was then aspirated from each well and replaced with fresh media containing GRK2 inhibitors. The compound treated cells were then incubated for an additional 4 days at 37° C., 5% CO2. Cell viability was assessed and at end of the 7-day compound treatment by CellTiterGlo.

SMILES	IC50
O=C(NCc1cccnc1-n1ccnc1)c1cccc(NCc2nnc(-c3ccncc3)[nH]2)c1	> 10 µM
C[C@H](NC(=O)c1cccc(NCc2nnc(-c3ccncn3)n2C)c1)c1ccccn1	2.58 µM
CC(NC(=O)c1cccc(NCc2nnc(-c3ccncc3)[nH]2)c1)c1cn[nH]c1 (centres unmarked)	0.323 µM
Cc1ccnc(C(C)NC(=O)c2cccc(NCc3nnc(-c4ccncn4)n3C)c2)n1 (centres unmarked)	> 10 µM
CCn1nnc(C)c1CNC(=O)c1cccc(NCc2nnc(-c3ccncc3)[nH]2)c1	0.651 µM
COc1ccc2c(c1)OCC[C@@H]2NC(=O)c1cccc(NCc2nnc(-c3ccncn3)n2C)c1	10.1 µM
CN1CCC(CNC(=O)c2cccc(NCc3nnc(-c4ccncc4)[nH]3)c2)C1=O (centres unmarked)	> 10 µM
COCCn1nc(C)c(CNC(=O)c2cccc(NCc3nnc(-c4ccncc4)[nH]3)c2)c1C	> 10 µM
Cn1c(CNC(=O)c2cccc(NCc3nnc(-c4ccncc4)[nH]3)c2)nnc1C1CCC1	> 10 µM
Cn1nccc1C(NC(=O)c1cccc(NCc2nnc(-c3ccncn3)n2C)c1)c1ccccc1 (centres unmarked)	> 10 µM
CC(NC(=O)c1cccc(NCc2nnc(-c3ccncc3)[nH]2)c1)c1nncn1C (centres unmarked)	> 10 µM
CCOc1ncccc1CNC(=O)c1cccc(NCc2nnc(-c3ccncn3)n2C)c1	3.61 µM
CCn1ncnc1CNC(=O)c1cccc(NCc2nnc(-c3ccncc3)[nH]2)c1	> 10 µM
CCn1nc(C)c(CNC(=O)c2cccc(NCc3nnc(-c4ccncc4)[nH]3)c2)c1C	> 10 µM
CCn1nccc1C(C)NC(=O)c1cccc(NCc2nnc(-c3ccncc3)[nH]2)c1 (centres unmarked)	> 10 µM
C[C@H](NC(=O)c1cccc(NCc2nnc(-c3ccncn3)n2C)c1)c1cnccn1	1.51 µM
COc1cccc(CNC(=O)c2cccc(NCc3nnc(-c4ccncn4)n3C)c2)c1OC	> 10 µM
Cc1ccnc(CNC(=O)c2cccc(NCc3nnc(-c4ccncn4)n3C)c2)n1	> 10 µM
O=C(NCC1(F)CCC1)c1cccc(NCc2nnc(-c3ccncc3)[nH]2)c1	3.22 µM
O=C(NCC1CC1(F)F)c1cccc(NCc2nnc(-c3ccncc3)[nH]2)c1 (centres unmarked)	> 10 µM
CN1CCN(c2nccc(CNC(=O)c3cccc(NCc4nnc(-c5ccncn5)n4C)c3)n2)CC1	> 10 µM
CC1(CNC(=O)c2cccc(NCc3nnc(-c4ccncc4)[nH]3)c2)CCCOC1 (centres unmarked)	> 10 µM
Cn1c(CNc2cccc(C(=O)NC(c3ncccn3)C(C)(C)C)c2)nnc1-c1ccncn1 (centres unmarked)	> 10 µM
Cn1cnnc1CNC(=O)c1cccc(NCc2nnc(-c3ccncc3)[nH]2)c1	> 10 µM

SMILES	IC50
Cn1c(CNc2cccc(C(=O)NCc3cn[nH]c3)c2)nnc1-c1ccncn1	> 10 µM
O=C(NC1(c2ccncc2)CC1)c1cccc(NCc2nnc(-c3ccncc3)[nH]2)c1	> 10 µM
Cc1cc(CNC(=O)c2cccc(NCc3nnc(-c4ccncc4)[nH]3)c2)ccn1	> 10 µM
Cn1c(CNc2cccc(C(=O)NCc3nc4ccccc4o3)c2)nnc1-c1ccncn1	> 10 µM
CC(NC(=O)c1cccc(NCc2nnc(-c3ccncc3)[nH]2)c1)c1ncnn1C (centres unmarked)	> 10 µM
Cn1c(CNc2cccc(C(=O)NC3(c4nccs4)CCCC3)c2)nnc1-c1ccncn1	> 10 µM
COc1ccccc1C1(NC(=O)c2cccc(NCc3nnc(-c4ccncn4)n3C)c2)CC1	> 10 µM
Cc1nc(CNC(=O)c2cccc(NCc3nnc(-c4ccncn4)n3C)c2)c[nH]1	> 10 µM
CCn1nccc1CNC(=O)c1cccc(NCc2nnc(-c3ccncc3)[nH]2)c1	0.739 µM
Cn1c(CNc2cccc(C(=O)NCc3ccc(Cn4cncn4)cc3)c2)nnc1-c1ccncn1	> 10 µM
COc1ccccc1[C@@H](NC(=O)c1cccc(NCc2nnc(-c3ccncn3)n2C)c1)c1nccn1C	78.2 µM
C[C@H](NC(=O)c1cccc(NCc2nnc(-c3ccncn3)n2C)c1)c1ncccc1F	0.738 µM
CCC(NC(=O)c1cccc(NCc2nnc(-c3ccncn3)n2C)c1)c1ncccn1 (centres unmarked)	5.39 µM
Cn1c(CNc2cccc(C(=O)NCc3ccc(-n4cncn4)cc3)c2)nnc1-c1ccncn1	> 10 µM
CN(C)CCC(NC(=O)c1cccc(NCc2nnc(-c3ccncc3)[nH]2)c1)c1cccnc1 (centres unmarked)	> 10 µM
O=C(NC1(c2ncccn2)CC1)c1cccc(NCc2nnc(-c3ccncc3)[nH]2)c1	> 10 µM
CC(C)n1nccc1CNC(=O)c1cccc(NCc2nnc(-c3ccncn3)n2C)c1	> 10 µM
Cn1c(CNc2cccc(C(=O)NCc3ccccn3)c2)nnc1-c1ccncn1	> 10 µM
Cn1c(CNc2cccc(C(=O)NC3(c4ccccn4)CCC3)c2)nnc1-c1ccncn1	> 10 µM
CC1CC(NC(=O)c2cccc(NCc3nnc(-c4ccncn4)n3C)c2)c2ncnn21 (centres unmarked)	> 10 µM
CC(NC(=O)c1cccc(NCc2nnc(-c3ccncn3)n2C)c1)c1ccon1 (centres unmarked)	> 10 µM
Cn1c(CNc2cccc(C(=O)NCc3ccn(C4CCCC4)n3)c2)nnc1-c1ccncn1	> 10 µM
Cc1cccc(CNC(=O)c2cccc(NCc3nnc(-c4ccncn4)n3C)c2)n1	3.92 µM
CC(NC(=O)c1cccc(NCc2nnc(-c3ccncn3)n2C)c1)c1ccn[nH]1 (centres unmarked)	> 10 µM

SMILES	IC50
COC[C@H](NC(=O)c1cccc(NCc2nnc(-c3ccncc3)[nH]2)c1)c1cccnc1	> 10 µM
Cc1ncc(CNC(=O)c2cccc(NCc3nnc(-c4ccncn4)n3C)c2)s1	> 10 µM
Cn1cc2c(n1)CCCC2NC(=O)c1cccc(NCc2nnc(-c3ccncc3)[nH]2)c1 (centres unmarked)	> 10 µM
Cc1nc(C2(NC(=O)c3cccc(NCc4nnc(-c5ccncn5)n4C)c3)CC2)cs1	4.74 µM
Cn1c(CNC(=O)c2cccc(NCc3nnc(-c4ccncc4)[nH]3)c2)nnc1C1CC1	> 10 µM
O=C(NCc1ccncc1OCC(F)F)c1cccc(NCc2nnc(-c3ccncc3)[nH]2)c1	> 10 µM
Cn1c(CNc2cccc(C(=O)NCc3cncs3)c2)nnc1-c1ccncn1	> 10 µM
Cn1c(CNc2cccc(C(=O)NCc3ncccn3)c2)nnc1-c1ccncn1	> 10 µM
Cc1cc(CNC(=O)c2cccc(NCc3nnc(-c4ccncn4)n3C)c2)ccn1	> 10 µM
Cc1nn(C)c(C)c1CNC(=O)c1cccc(NCc2nnc(-c3ccncc3)[nH]2)c1	> 10 µM
O=C(NCc1cccnn1)c1cccc(NCc2nnc(-c3ccncc3)[nH]2)c1	> 10 µM
CCN(CC)C(=O)C(NC(=O)c1cccc(NCc2nnc(-c3ccncn3)n2C)c1)c1ccccc1 (centres unmarked)	> 10 µM
COc1ccnc(CNC(=O)c2cccc(NCc3nnc(-c4ccncn4)n3C)c2)c1	3.15 µM
CCN(CC)Cc1ccccc1CNC(=O)c1cccc(NCc2nnc(-c3ccncn3)n2C)c1	> 10 µM
CN(C)CCC(NC(=O)c1cccc(NCc2nnc(-c3ccncc3)[nH]2)c1)c1ccccc1 (centres unmarked)	> 10 µM
O=C(NCc1nnc2n1CCCC2C(F)(F)F)c1cccc(NCc2nnc(-c3ccncc3)[nH]2)c1 (centres unmarked)	> 10 µM
Cn1c(CNc2cccc(C(=O)NC3(c4ccccn4)CC3)c2)nnc1-c1ccncn1	2.03 µM
Cn1c(CNc2cccc(C(=O)NCc3cc(C(F)(F)F)ccn3)c2)nnc1-c1ccncn1	> 10 µM
Cn1c(CNc2cccc(C(=O)NC3(c4ccc(F)cn4)CC3)c2)nnc1-c1ccncn1	0.291 µM
CCOc1ccccc1CNC(=O)c1cccc(NCc2nnc(-c3ccncc3)[nH]2)c1	> 30 µM
Cc1csc(CNC(=O)c2cccc(NCc3nnc(-c4ccncn4)n3C)c2)n1 [drawing 407]	0.862 µM
O=C(NC1(c2cccnc2)CC1)c1cccc(NCc2nnc(-c3ccncc3)[nH]2)c1	> 10 µM
O=C(NCc1nccn1CC(F)(F)F)c1cccc(NCc2nnc(-c3ccncc3)[nH]2)c1	> 10 µM
